This assay deals with Phosphatidylinositol 3-kinase regulatory subunit alpha/4,5-bisphosphate 3-kinase catalytic subunit delta isoform (Homo sapiens, UniProt P27986+O00329). Put plainly: Inhibition of human full length PI3K p110delta/p85alpha using phosphatidylinositol […] as substrate measured after 30 mins by TR-FRET assay.
Sequence of Phosphatidylinositol 3-kinase regulatory subunit alpha/4,5-bisphosphate 3-kinase catalytic subunit delta isoform (P27986 whole entry, canonical isoform): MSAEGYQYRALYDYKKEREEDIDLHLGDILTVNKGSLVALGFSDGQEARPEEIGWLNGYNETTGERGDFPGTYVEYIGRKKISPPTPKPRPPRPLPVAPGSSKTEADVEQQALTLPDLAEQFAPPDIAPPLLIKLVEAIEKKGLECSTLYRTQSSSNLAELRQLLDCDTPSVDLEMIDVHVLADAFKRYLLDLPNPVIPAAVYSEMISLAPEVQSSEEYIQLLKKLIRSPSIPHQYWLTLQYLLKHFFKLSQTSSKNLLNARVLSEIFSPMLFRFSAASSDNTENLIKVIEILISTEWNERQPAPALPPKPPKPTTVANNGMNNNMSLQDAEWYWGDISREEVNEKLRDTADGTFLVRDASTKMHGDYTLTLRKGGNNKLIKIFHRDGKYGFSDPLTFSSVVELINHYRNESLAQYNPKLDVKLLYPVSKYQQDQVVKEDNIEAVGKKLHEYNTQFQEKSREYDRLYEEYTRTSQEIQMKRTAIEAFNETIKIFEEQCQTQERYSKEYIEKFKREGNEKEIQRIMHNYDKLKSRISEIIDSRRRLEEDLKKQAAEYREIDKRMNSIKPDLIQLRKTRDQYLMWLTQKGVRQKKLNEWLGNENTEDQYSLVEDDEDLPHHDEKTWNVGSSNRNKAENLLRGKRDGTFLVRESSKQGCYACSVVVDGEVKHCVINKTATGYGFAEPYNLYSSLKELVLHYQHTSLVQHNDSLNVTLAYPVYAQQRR
Sequence of Phosphatidylinositol 3-kinase regulatory subunit alpha/4,5-bisphosphate 3-kinase catalytic subunit delta isoform (O00329 whole entry, canonical isoform): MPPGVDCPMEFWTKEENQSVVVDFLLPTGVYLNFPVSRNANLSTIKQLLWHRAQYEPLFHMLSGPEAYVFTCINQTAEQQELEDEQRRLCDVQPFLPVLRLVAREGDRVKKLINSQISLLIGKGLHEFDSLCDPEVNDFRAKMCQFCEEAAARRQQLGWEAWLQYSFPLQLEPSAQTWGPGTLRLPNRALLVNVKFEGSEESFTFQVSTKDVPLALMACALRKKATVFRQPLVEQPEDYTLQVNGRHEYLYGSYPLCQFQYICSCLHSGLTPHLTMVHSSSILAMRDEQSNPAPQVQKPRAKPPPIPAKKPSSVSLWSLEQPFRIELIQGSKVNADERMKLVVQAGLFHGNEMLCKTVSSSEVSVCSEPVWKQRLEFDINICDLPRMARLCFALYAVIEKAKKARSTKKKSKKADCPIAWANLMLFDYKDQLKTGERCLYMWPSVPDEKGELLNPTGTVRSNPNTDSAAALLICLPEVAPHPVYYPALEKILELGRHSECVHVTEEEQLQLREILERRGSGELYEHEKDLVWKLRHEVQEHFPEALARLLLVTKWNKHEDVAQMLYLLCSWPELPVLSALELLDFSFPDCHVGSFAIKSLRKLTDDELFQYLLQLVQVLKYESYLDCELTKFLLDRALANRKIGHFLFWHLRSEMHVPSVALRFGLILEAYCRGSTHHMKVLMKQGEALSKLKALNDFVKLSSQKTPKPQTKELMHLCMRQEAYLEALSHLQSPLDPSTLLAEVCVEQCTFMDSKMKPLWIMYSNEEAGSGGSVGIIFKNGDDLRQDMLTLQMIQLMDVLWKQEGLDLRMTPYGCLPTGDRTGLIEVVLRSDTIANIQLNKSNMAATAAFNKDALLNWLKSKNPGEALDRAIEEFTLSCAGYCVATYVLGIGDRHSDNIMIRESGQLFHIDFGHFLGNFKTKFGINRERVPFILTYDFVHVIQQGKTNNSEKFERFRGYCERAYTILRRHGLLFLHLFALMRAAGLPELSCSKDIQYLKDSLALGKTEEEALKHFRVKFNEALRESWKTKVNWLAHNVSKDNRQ

Molecule `COc1cncc(-n2c([C@H](C)Nc3nc(N)nc(N)c3C#N)nc3cccc(Cl)c3c2=O)c1` [US9221795, 14] registered an IC50 of 4 nM.
The result for `C[C@H](Nc1nc(N)nc(N)c1C#N)c1nc2c(F)ccc(Cl)c2c(=O)n1-c1cccnc1` [US9221795, 24] reads 0.4 nM; that for `C[C@H](Nc1nc(N)nc(N)c1C#N)c1nc2cccc(Cl)c2c(=O)n1-c1cccnc1` [US9221795, 1], 0.6 nM; that for `C[C@H](Nc1nc(N)nc(N)c1C#N)c1nc2cccc(Cl)c2c(=O)n1-c1cncc(C2CC2)c1` [US9221795, 19], 5 nM.
`Cc1ccncc1-n1c([C@H](C)Nc2nc(N)nc(N)c2C#N)nc2cccc(Cl)c2c1=O` [US9221795, 40] showed an IC50 of 0.4 nM.
Molecule `C[C@H](Nc1nc(N)nc(N)c1C#N)c1nc2cccc(Cl)c2c(=O)n1-c1cncc(Cl)c1` [US9221795, 13] displayed an IC50 of 8 nM.
The molecule `C[C@H](Nc1nc(N)nc(N)c1C#N)c1nc2c(F)ccc(F)c2c(=O)n1-c1cccnc1` [US9221795, 25] yielded an IC50 of 8 nM.
In turn, `C[C@H](Nc1nc(N)nc(N)c1C#N)c1nc2c(Cl)cccc2c(=O)n1-c1cccnc1` [US9221795, 22] displayed an IC50 of 6 nM.

The values are drawn from BindingDB's records for doi:10.1021/acs.jmedchem.6b01169 (Gilead Sciences, 2016).
